Data from article PMC4957640 (Bioorganic & medicinal chemistry, 2016).

Key:
Format in all cases: biochemical
[1] = target: cloned human κ opioid receptor (KOR) (Homo sapiens, UniProt P41145); test: Inhibition of U69,593-stimulated [35S]GTPγS binding; conditions: for δ/κ: ratio of Ke values, selectivity for KOR relative to DOR (fold)
[2] = target: cloned human δ opioid receptor (DOR) (Homo sapiens, UniProt P41143); test: Inhibition of DPDPE-stimulated [35S]GTPγS binding
[3] = target: cloned human μ opioid receptor (MOR) (Homo sapiens, UniProt P35372); test: Inhibition of DAMGO-stimulated [35S]GTPγS binding
Sequence of cloned human μ opioid receptor (MOR) (P35372 whole entry): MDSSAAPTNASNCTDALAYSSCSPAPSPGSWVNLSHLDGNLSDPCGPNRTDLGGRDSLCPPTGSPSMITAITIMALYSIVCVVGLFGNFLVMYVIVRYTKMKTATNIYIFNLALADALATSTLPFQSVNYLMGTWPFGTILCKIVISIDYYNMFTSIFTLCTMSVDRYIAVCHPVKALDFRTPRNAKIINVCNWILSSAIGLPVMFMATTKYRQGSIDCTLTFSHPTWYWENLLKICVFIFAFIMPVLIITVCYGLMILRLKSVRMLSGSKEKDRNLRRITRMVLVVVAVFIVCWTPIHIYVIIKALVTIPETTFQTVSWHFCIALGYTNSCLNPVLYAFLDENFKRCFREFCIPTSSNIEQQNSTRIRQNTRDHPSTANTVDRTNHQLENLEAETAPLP

Sequence of cloned human κ opioid receptor (KOR) (P41145 whole entry): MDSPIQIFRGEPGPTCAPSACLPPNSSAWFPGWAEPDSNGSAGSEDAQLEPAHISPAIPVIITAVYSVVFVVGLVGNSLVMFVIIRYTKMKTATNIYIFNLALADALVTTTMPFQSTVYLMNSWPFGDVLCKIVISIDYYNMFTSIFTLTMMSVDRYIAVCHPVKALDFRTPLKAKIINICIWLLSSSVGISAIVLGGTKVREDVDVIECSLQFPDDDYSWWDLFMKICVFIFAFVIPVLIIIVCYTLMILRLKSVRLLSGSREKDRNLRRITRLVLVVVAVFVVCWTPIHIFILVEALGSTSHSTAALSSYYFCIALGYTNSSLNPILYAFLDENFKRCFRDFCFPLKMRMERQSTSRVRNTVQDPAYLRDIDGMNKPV
Sequence of cloned human δ opioid receptor (DOR) (P41143 whole entry): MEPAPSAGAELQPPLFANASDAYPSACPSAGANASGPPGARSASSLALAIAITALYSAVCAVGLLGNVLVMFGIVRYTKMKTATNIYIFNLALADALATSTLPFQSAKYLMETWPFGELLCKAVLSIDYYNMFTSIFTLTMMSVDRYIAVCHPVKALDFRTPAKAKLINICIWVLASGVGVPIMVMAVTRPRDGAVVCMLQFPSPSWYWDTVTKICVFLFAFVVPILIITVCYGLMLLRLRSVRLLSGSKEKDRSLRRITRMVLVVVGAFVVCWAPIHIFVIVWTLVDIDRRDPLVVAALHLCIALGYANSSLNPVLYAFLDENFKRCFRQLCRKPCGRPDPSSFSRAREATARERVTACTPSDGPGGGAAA

| SMILES | Kb [1] | δ/κ [1] | Kb [2] | Kb [3] |
| --- | --- | --- | --- | --- |
| CC(C)[C@@H](CN1CCC(c2ccncc2)CC1)NC(=O)[C@H]1Cc2ccc(O)cc2CN1 [Compound 4a, (3R)-7-Hydroxy-N-{(1S)-2-methyl-1-[(4-pyridin-4-ylpiperidin-1-yl)methyl]propyl}-1,2,3,4-tetrahydroisoquinoline-3-carboxamide] | 0.00051 ± 0.00014 µM | 1,353 | 0.69 ± 0.25 µM | 0.0571 ± 0.015 µM |
| CC(C)[C@@H](CN1CCC(C)(c2cccnc2)CC1)NC(=O)[C@H]1Cc2ccc(O)cc2CN1 [Compound 3b, (3R)-7-Hydroxy-N-{(1S)-2-methyl-1-[(4-methyl-4-pyridin-3-ylpiperidin-1-yl)methyl]propyl}-1,2,3,4-tetrahydroisoquinoline-3-carboxamide] | 0.00018 ± 1e-05 µM | >16,700 | > 3 µM | 0.0492 ± 0.014 µM |
| CC(C)[C@@H](CN1CCC(c2cccnc2)CC1)NC(=O)[C@H]1Cc2ccc(O)cc2CN1 [Compound 3a, (3R)-7-Hydroxy-N-{(1S)-2-methyl-1-[(4-pyridin-3-ylpiperidin-1-yl)methyl]propyl}-1,2,3,4-tetrahydroisoquinoline-3-carboxamide] | 0.00051 ± 8e-05 µM | 2,235 | 1.14 ± 0.07 µM | 0.0454 ± 0.015 µM |
| CC(C)[C@@H](CN1CCC(C)(c2ccncc2)CC1)NC(=O)[C@H]1Cc2ccc(O)cc2CN1 [Compound 4b, (3R)-7-Hydroxy-N-{(1S)-2-methyl-1-[(4-methyl-4-pyridin-4-ylpiperidin-1-yl)methyl]propyl}-1,2,3,4-tetrahydroisoquinoline-3-carboxamide] | 0.00175 ± 0.00065 µM | 1,434 | 2.51 µM | 0.154 ± 0.056 µM |
| CC(C)[C@@H](CN1CCC(c2ccccn2)CC1)NC(=O)[C@H]1Cc2ccc(O)cc2CN1 [Compound 2, (3R)-7-Hydroxy-N-{(1S)-2-methyl-1-[(4-pyridin-2-ylpiperidin-1-yl)methyl]propyl}-1,2,3,4-tetrahydroisoquinoline-3-carboxamide] | 0.00043 ± 0.00012 µM | 1,372 | 0.59 ± 0.13 µM | 0.0145 ± 0.0026 µM |
